Assay results from ChEMBL document CHEMBL3045332, “Synthesis of some new 2,6-disubstituted-3(2H)-pyridazinone derivatives and investigation of their analgesic, anti-inflammatory and antimicrobial activities” (Med Chem Res, 2013).
Converted amounts (≈) assume the structure as drawn.

Key:
Pichia kudriavzevii = assay: Antifungal activity against Pichia kudriavzevii ATCC 6258 after 48 hr by two-fold serial dilution method; assay type: functional; conditions: ATCC 6258, 48 h
Candida albicans = assay: Antifungal activity against Candida albicans ATCC 10231 after 48 hr by two-fold serial dilution method; assay type: functional; conditions: ATCC 10231, 48 h
Pseudomonas aeruginosa [1] = assay: Antibacterial activity against Pseudomonas aeruginosa cloinical isolate after 24 hr by two-fold serial dilution method; assay type: functional
Pseudomonas aeruginosa [2] = assay: Antibacterial activity against Pseudomonas aeruginosa ATCC 27853 after 24 hr by two-fold serial dilution method; assay type: functional; conditions: ATCC 27853, 24 h
Escherichia coli [3] = assay: Antibacterial activity against Escherichia coli clinical isolate expressing extended spectrum beta-lactamase after 24 hr by two-fold serial dilution method; assay type: functional
Escherichia coli [4] = assay: Antibacterial activity against Escherichia coli ATCC 25922 after 24 hr by two-fold serial dilution method; assay type: functional; conditions: ATCC 25922, 24 h
Enterococcus faecalis [5] = assay: Antibacterial activity against Enterococcus faecalis clinical isolate after 24 hr by two-fold serial dilution method; assay type: functional
Enterococcus faecalis [6] = assay: Antibacterial activity against Enterococcus faecalis ATCC 29212 after 24 hr by two-fold serial dilution method; assay type: functional; conditions: ATCC 29212, 24 h
Staphylococcus aureus [7] = assay: Antibacterial activity against methicillin-resistant Staphylococcus aureus clinical isolate after 24 hr by two-fold serial dilution method; assay type: functional
Staphylococcus aureus [8] = assay: Antibacterial activity against Staphylococcus aureus ATCC 29213 after 24 hr by two-fold serial dilution method; assay type: functional; conditions: ATCC 29213, 24 h
Mus musculus [9] = assay: Anti-inflammatory activity in Swiss albino Mus musculus (mouse) assessed as inhibition of carrageenan-induced paw edema at 100 mg/kg, po administered 60 min prior to crrageenan-challenge measured at 360 min relative to control; assay type: functional
Mus musculus [10] = assay: Anti-inflammatory activity in Swiss albino Mus musculus (mouse) assessed as inhibition of carrageenan-induced paw edema at 100 mg/kg, po administered 60 min prior to crrageenan-challenge measured at 270 min relative to control; assay type: functional
Mus musculus [11] = assay: Anti-inflammatory activity in Swiss albino Mus musculus (mouse) assessed as inhibition of carrageenan-induced paw edema at 100 mg/kg, po administered 60 min prior to crrageenan-challenge measured at 180 min relative to control; assay type: functional
Mus musculus [12] = assay: Anti-inflammatory activity in Swiss albino Mus musculus (mouse) assessed as inhibition of carrageenan-induced paw edema at 100 mg/kg, po administered 60 min prior to crrageenan-challenge measured at 90 min relative to control; assay type: functional
Mus musculus [13] = assay: Ulcerogenic activity in p-benzoquinone-challenged Swiss albino Mus musculus (mouse) at 100 mg/kg, po administered 60 min prior to p-benzoquinone-challenge by microscopic analysis; assay type: toxicity, organism-based; set-up: dose 100 mg/kg, route oral; conditions: in vivo, 1 h
Mus musculus [14] = assay: Analgesic activity in Swiss albino Mus musculus (mouse) assessed as inhibition of p-benzoquinone-induced writhing at 100 mg/kg, po administered 60 min prior to p-benzoquinone-challenge measured up to 15 min relative to control; assay type: functional
Mus musculus [15] = assay: Anti-inflammatory activity in Swiss albino Mus musculus (mouse) assessed as inhibition of carrageenan-induced paw edema at 10 mg/kg, po administered 60 min prior to crrageenan-challenge measured at 360 min relative to control; assay type: functional
Mus musculus [16] = assay: Anti-inflammatory activity in Swiss albino Mus musculus (mouse) assessed as inhibition of carrageenan-induced paw edema at 10 mg/kg, po administered 60 min prior to crrageenan-challenge measured at 270 min relative to control; assay type: functional
Mus musculus [17] = assay: Anti-inflammatory activity in Swiss albino Mus musculus (mouse) assessed as inhibition of carrageenan-induced paw edema at 10 mg/kg, po administered 60 min prior to crrageenan-challenge measured at 180 min relative to control; assay type: functional
Mus musculus [18] = assay: Anti-inflammatory activity in Swiss albino Mus musculus (mouse) assessed as inhibition of carrageenan-induced paw edema at 10 mg/kg, po administered 60 min prior to crrageenan-challenge measured at 90 min relative to control; assay type: functional

With O=c1ccc(-c2ccc(Cl)cc2)nn1CCN1CCN(c2ccc(Cl)cc2)CC1 the MIC (Pichia kudriavzevii) was 32 µg/mL (≈ 74.5 µM), the MIC (Candida albicans) was 32 µg/mL (≈ 74.5 µM) and the MIC (Pseudomonas aeruginosa [1]) was 64 µg/mL (≈ 149 µM). It also gave an MIC (Pseudomonas aeruginosa [2]) of 64 µg/mL (≈ 149 µM), an MIC (Escherichia coli [3]) of 64 µg/mL (≈ 149 µM) and an MIC (Escherichia coli [4]) of 64 µg/mL (≈ 149 µM). It also gave an MIC (Enterococcus faecalis [5]) of 64 µg/mL (≈ 149 µM), an MIC (Enterococcus faecalis [6]) of 64 µg/mL (≈ 149 µM) and an MIC (Staphylococcus aureus [7]) of 128 µg/mL (≈ 298 µM). For the same molecule, the MIC (Staphylococcus aureus [8]) was 64 µg/mL (≈ 149 µM), the inhibition in vivo at 100 mg/kg (Mus musculus [9]) was 28.2% and the inhibition in vivo at 100 mg/kg (Mus musculus [10]) was 31%. The inhibition in vivo at 100 mg/kg (Mus musculus [11]) was 29.7%, the inhibition in vivo at 100 mg/kg (Mus musculus [12]) was 20.6% and the Activity (Mus musculus [13]) was “Non-toxic”. For the same molecule, the inhibition in vivo at 100 mg/kg (Mus musculus [14]) was 53.2%.

Molecule O=c1ccc(-c2ccc(Cl)cc2)nn1CCN1CCN(c2ccc(F)cc2)CC1 has an MIC (Pichia kudriavzevii) of 32 µg/mL (≈ 77.5 µM), an MIC (Candida albicans) of 32 µg/mL (≈ 77.5 µM) and an MIC (Pseudomonas aeruginosa [1]) of 64 µg/mL (≈ 155 µM). It also gave an MIC (Pseudomonas aeruginosa [2]) of 64 µg/mL (≈ 155 µM), an MIC (Escherichia coli [3]) of 64 µg/mL (≈ 155 µM) and an MIC (Escherichia coli [4]) of 64 µg/mL (≈ 155 µM). The MIC (Enterococcus faecalis [5]) was 64 µg/mL (≈ 155 µM), the MIC (Enterococcus faecalis [6]) was 64 µg/mL (≈ 155 µM) and the MIC (Staphylococcus aureus [7]) was 128 µg/mL (≈ 310 µM). It also gave an MIC (Staphylococcus aureus [8]) of 64 µg/mL (≈ 155 µM), an inhibition in vivo at 100 mg/kg (Mus musculus [9]) of 28.8% and an inhibition in vivo at 100 mg/kg (Mus musculus [10]) of 35.3%. The inhibition in vivo at 100 mg/kg (Mus musculus [11]) was 28.3%, the inhibition in vivo at 100 mg/kg (Mus musculus [12]) was 29.5% and the Activity (Mus musculus [13]) was “Non-toxic”. It also gave an inhibition in vivo at 100 mg/kg (Mus musculus [14]) of 57.5%.

COc1ccc(N2CCN(CCn3nc(-c4ccc(Cl)cc4)ccc3=O)CC2)cc1 gave an MIC (Pichia kudriavzevii) of 32 µg/mL (≈ 75.3 µM), an MIC (Candida albicans) of 32 µg/mL (≈ 75.3 µM) and an MIC (Pseudomonas aeruginosa [1]) of 64 µg/mL (≈ 151 µM). For the same molecule, the MIC (Pseudomonas aeruginosa [2]) was 64 µg/mL (≈ 151 µM), the MIC (Escherichia coli [3]) was 64 µg/mL (≈ 151 µM) and the MIC (Escherichia coli [4]) was 64 µg/mL (≈ 151 µM). For the same molecule, the MIC (Enterococcus faecalis [5]) was 64 µg/mL (≈ 151 µM), the MIC (Enterococcus faecalis [6]) was 64 µg/mL (≈ 151 µM) and the MIC (Staphylococcus aureus [7]) was 128 µg/mL (≈ 301 µM). The MIC (Staphylococcus aureus [8]) was 64 µg/mL (≈ 151 µM), the inhibition in vivo at 100 mg/kg (Mus musculus [9]) was 15.5% and the inhibition in vivo at 100 mg/kg (Mus musculus [10]) was 18.5%. The inhibition in vivo at 100 mg/kg (Mus musculus [11]) was 12.3%, the inhibition in vivo at 100 mg/kg (Mus musculus [12]) was 4.7% and the Activity (Mus musculus [13]) was “Non-toxic”. The inhibition in vivo at 100 mg/kg (Mus musculus [14]) was 30.2%.

C[C@@H]1[C@H](O)[C@@H](C)/C=C/C=C/C=C/C=C/C=C/C=C/C=C/[C@H](O[C@@H]2O[C@H](C)[C@@H](O)[C@H](N)[C@@H]2O)C[C@@H]2O[C@](O)(C[C@@H](O)C[C@@H](O)[C@H](O)CC[C@@H](O)C[C@@H](O)CC(=O)O[C@H]1C)C[C@H](O)[C@H]2C(=O)O [AMPHOTERICIN B] showed an MIC (Pichia kudriavzevii) of 0.5 µg/mL (≈ 0.541 µM) and an MIC (Candida albicans) of under 0.25 µg/mL.

CC1(C)S[C@@H]2[C@H](NC(=O)[C@H](N)c3ccccc3)C(=O)N2[C@H]1C(=O)O [AMPICILLIN] was tested, and the MIC (Escherichia coli [3]) was 64 µg/mL (≈ 183 µM), the MIC (Escherichia coli [4]) was 8 µg/mL (≈ 22.9 µM) and the MIC (Enterococcus faecalis [5]) was 4 µg/mL (≈ 11.4 µM). For the same molecule, the MIC (Enterococcus faecalis [6]) was 2 µg/mL (≈ 5.72 µM), the MIC (Staphylococcus aureus [7]) was 32 µg/mL (≈ 91.6 µM) and the MIC (Staphylococcus aureus [8]) was 2 µg/mL (≈ 5.72 µM).

CC(=O)Oc1ccccc1C(=O)O [ASPIRIN] was tested, and the Activity (Mus musculus [13]) was “Toxic” and the inhibition in vivo at 100 mg/kg (Mus musculus [14]) was 45.9%.

In the case of OC(Cn1cncn1)(Cn1cncn1)c1ccc(F)cc1F [FLUCONAZOLE], the MIC (Pichia kudriavzevii) is reported as 64 µg/mL (≈ 209 µM) and the MIC (Candida albicans) is reported as 1 µg/mL (≈ 3.27 µM).

COc1ccc2c(c1)c(CC(=O)O)c(C)n2C(=O)c1ccc(Cl)cc1 [INDOMETHACIN] was tested, and the inhibition in vivo at 10 mg/kg (Mus musculus [15]) was 39.4%, the inhibition in vivo at 10 mg/kg (Mus musculus [16]) was 37.6% and the inhibition in vivo at 10 mg/kg (Mus musculus [17]) was 36.9%. The inhibition in vivo at 10 mg/kg (Mus musculus [18]) was 25.3%.

CC1COc2c(N3CCN(C)CC3)c(F)cc3c(=O)c(C(=O)O)cn1c23 (stereo not given) [OFLOXACIN] was tested, and the MIC (Pseudomonas aeruginosa [1]) was 32 µg/mL (≈ 88.6 µM), the MIC (Escherichia coli [3]) was 16 µg/mL (≈ 44.3 µM) and the MIC (Enterococcus faecalis [5]) was 2 µg/mL (≈ 5.53 µM). The MIC (Enterococcus faecalis [6]) was 1 µg/mL (≈ 2.77 µM), the MIC (Staphylococcus aureus [7]) was 2 µg/mL (≈ 5.53 µM) and the MIC (Staphylococcus aureus [8]) was 0.5 µg/mL (≈ 1.38 µM).
